Laboratory results: patent US20250228890A1, “ANTI-CANCER FORMULATION COMPRISING SODIUM PENTABORATE, CURCUMIN AND PIPERINE FOR USE IN THE TREATMENT OF HEPATOCELLULAR CARCINOMA” (Yeditepe Universitesi, priority 2022, published 2025)

How the values were obtained:
HepG2 cells = assay: MTS cell viability assay, HepG2 cells; format: cell-based, Human; details: 48 hours
Method: (§1) Human hepatocellular cancer cell lines, HepG2 (HB-8065, ATCC), Hep3B (HB-8064, ATCC) and HUVEC (CRL-1730) cells are cultured in a growth medium (2 mM L-glutamine, 100 U/ml penicillin, 100 µg/ml streptomycin) of Dulbecco's modified Eagle's medium (DMEM) containing 10% heat inactivated FBS in a humidified atmosphere at 37° C. with 5% CO2. Cells are passaged at 3-day intervals.
(§2) (NaB: B5H10NaO13), Curcumin (Sigma, C1386), and Piperine (Sigma, P49007). At the end of 24, 48 and 72 hours, cell viability were measured. Cell viability assay was performed by 3-(4,5-di-methyl-thiazol-2-yl)-5-(3-carboxy-methoxy-phenyl)-2-(4-sulfo-phenyl)-2H-tetrazolium (MTS) method (CellTiter96 AqueousOne Solution; Promega, Southampton, UK) following the manufacturer's protocol. After 2 hours of incubation time, the cell viability assay is conducted by measuring at 490 nm using an ELISA microplate reader (Bio-tek ELx800, USA). IC50 value for 48 hours was calculated.
(§3) The combination index (CI) is used to determine the degree of drug interaction. The concentration of inhibition in the combination is the sum of the ratio of the dose of each drug to the dose of each drug used alone. […] The formalization is as follows:
(§4) [formula] • (Dx)1, (Dx)2: Individual IC50 values of the substances • (D)1, (D)2: Concentrations of substances in the combination

Hep3B cells [1] = assay: MTS cell viability assay, Hep3B cells; format: cell-based, Human; details: 48 hours
Method: as §1, §2, §3, §4

Hep3B cells [2] = details: literature study [20]; cited from earlier work

IC50 (HepG2 cells; Homo sapiens) [µM] | IC50 (Hep3B cells [1]; Homo sapiens) [µM] | IC50 (HepG2 cells) [µM] | IC50 (Hep3B cells [1]) [µM] | Compound | proliferation of Hep3B cells (Hep3B cells [2])
> 150 | > 150 | – | – | O=C(/C=C/C=C/c1ccc2c(c1)OCO2)N1CCCCC1 [piperine] | –
– | – | 7660 | 6560 | sodium pentaborate pentahydrate | decreased the proliferation of Hep3B cells
44.8 | 41.4 | – | – | COc1cc(/C=C/C(=O)CC(=O)/C=C/c2ccc(O)c(OC)c2)ccc1O [curcumin] | –
